The subject of assay [1] is thymidylate synthase (TS). The assay is described as follows: Western blot of protein expression in BTC cells. The assay is classed as cell-based. Particulars: 48 hours. The method, then:
The effect of binimetinib, 5-fluorouracil (5-FU), or combination of these drugs on cell viability was evaluated using eight BTC cell lines (SNU245, SNU308, SNU478, SNU869, SNU1079, SNU1196, TFK1, and HuCCT1). As capecitabine is converted to 5-FU in vivo, 5-FU was used as an […] of oral administration of capecitabine in this preclinical study in cell lines. […] Subsequently, cell viability was measured at 540 nm with a Multiskan GO microplate reader using a commercially available MTT assay, according to the manufacturer's directions. The Chou-Talalay method was used to assess a combination effect. […] Actin was included as a loading control.

The test system of assay [2] is programmed death-ligand 1 (PD-L1). Put plainly: Western blot of protein expression in BTC cells. The assay is classed as cell-based. Particulars: 48 hours. As for the experimental part:
(§1) The effect of binimetinib, 5-fluorouracil (5-FU), or combination of these drugs on cell viability was evaluated using eight BTC cell lines (SNU245, SNU308, SNU478, SNU869, SNU1079, SNU1196, TFK1, and HuCCT1). As capecitabine is converted to 5-FU in vivo, 5-FU was used as an […] of oral administration of capecitabine in this preclinical study in cell lines. In brief, confluent monolayers, which had been grown in 96 well plates, were exposed to drugs for 72 hours. Subsequently, cell viability was measured at 540 nm with a Multiskan GO microplate reader using a commercially available MTT assay, according to the manufacturer's directions. The Chou-Talalay method was used to assess a combination effect. Cells were also treated with drugs for 48 hours and the expression of thymidylate synthase (TS), programmed death-ligand 1 (PD-L1), and β-actin was determined using western blot analysis according to a published protocol. Actin was included as a loading control.
In general terms: In western blotting, separated proteins are transferred to a membrane and probed.

Assay [3] has as its system BTC cell lines (SNU245, SNU308, SNU478, SNU869, SNU1079, SNU1196, TFK1, and HuCCT1). The assay is described as follows: MTT cell viability assay. The assay is classed as cell-based. Conditions: eight BTC cell lines, 72 hours exposure. As for the experimental part:
as §1
(In general: Formazan colour is commonly taken as a measure of viable cells.)

The subject of assay [4] is advanced or metastatic BTC. Conditions: binimetinib monotherapy, advanced or metastatic BTC patients; cited from earlier work.

With `O=c1[nH]cc(F)c(=O)[nH]1` [5-FU, 5-fluorouracil], the “thymidylate synthase (TS) expression” value in assay [1] is “upregulated”. Moreover, the PD-L1 expression result in assay [2] is “induced PD-L1 expression”.
As to `Cn1cnc2c(F)c(Nc3ccc(Br)cc3F)c(C(=O)NOCCO)cc21` [binimetinib, 6-(4-bromo-2-fluorophenylamino)-7-fluoro-3-methyl-3H-benzoimidazole-5-carboxylic acid (2-hydroxyethoxy)-amide], the cell viability result in assay [3] was “significant decreases in cell viability”. In assay [1], the “thymidylate synthase (TS) expression” value is “downregulated”. For the same compound, in assay [4], the DCR is given as 51%, the ORR is listed as 8%, the OS is listed as 4.8 months and the PFS is 2.1 months.

The record behind these values is patent US20210379095A1, “Methods and Combination Therapy to Treat Biliary Tract Cancer” (ARRAY BIOPHARMA INC., priority 2018, published 2021).
